Results reported in patent publication US20240246984A1, “HETEROCYCLIC JAK INHIBITOR” (BEIJING INNOCARE PHARMA TECH CO., LTD., priority 2020, published 2024).
Like-named read-outs stand apart in the source and are kept apart here.

Key:
[1] = system: IL-12-induced IFN-γ secretion in NK92 cells; test: Inhibition of IL-12-induced IFN-γ secretion in NK92 cells (ELISA); format: cell-based; settings: Homo sapiens, IL-12 stimulation, 24 hours, read-out: IC50 (NK92IL12/IFN-γ)
Procedure: The effect of the compounds of the present invention on IFN-γ secretion in IL-12-induced NK92 cells was evaluated by an enzyme-linked immunosorbent assay (ELISA).
The assay principle was generally described below: IL-12R was mainly expressed in activated T-cells, NK cells (NK92 was an NK cell line), DC cells, and B-cells. When binding to IL-12, it activated the JAK2/TYK2 signal transduction pathway within NK cells and activated T lymphocytes, thereby inducing secretion of IFN-γ.
The compound was dissolved to 2.5 mM in DMSO, followed by a serial 4-fold dilution with DMSO to a minimum concentration of 0.31 μM. Each concentration was further diluted 50-fold with an FBS-free MEMα medium (Thermofisher. 12561-056).
NK92 cells (Nanjing Cobioer, CBP60980) were cultured in a complete MEMα medium containing 12.5% FBS (Ausbian, VS500T), 12.5% horse serum (Thermofisher, 16050-122), 0.02 mM folic acid (Sigma, F8758), 0.2 mM inositol (Sigma, 17850), 0.55 mM β-mercaptoethanol (Thermofish, 21985-023), 200 U/mL IL-2 (R&D Systems, 202-1L), and 100 U/mL penicillin-streptomycin mixed liquor (ThermoFisher, 15140122). When covering 80-90% of the culture container surface, the cells were dispersed and plated on a 96-well plate (ThermoFisher, 167425) with 100,000 cells per well (80 μL of the complete MEMα medium without IL-2). The 96-well plate was then incubated overnight in a 37° C., 5% CO2 incubator.
After overnight incubation, 10 μL of the compound and 10 μL of 50 ng/ml IL-12 (R &D Systems, 219-1L) were added to each well and mixed gently, and the 96-well plate was incubated in the 37° C., 5% CO2 incubator for additional 24 hours. The plate was centrifuged at 800 rpm for 10 minutes at room temperature and 50 μL of the supernatant from each well was transferred to another 96-well plate (Sigma, CLS3695) coated with anti-IFN-γ antibody. The amount of IFN-γ secretion was detected following the instruction from the Human IFN-γ DuoSet ELISA assay kit (R & D Systems, DY285B). In this assay, the group in which IL-12 and the test compound were replaced with the MEMα medium was the non-stimulated control group (100% inhibition), and the group with IL-12 and 0.2% DMSO was the stimulated control group (0% inhibition). The compound inhibition curve was plotted using XLfit software and the IC50 of its inhibition was calculated.

[2] = Pharmacokinetic assay in mice (plasma and colon exposure); format: in vivo; settings: fed female C57 mice, 25 mg/kg PO, 4 hours after dosing; for concentration at 4 h: mouse
Procedure: Test compounds were formulated into a 5 mg/mL dosing sample (suspension or solution) in a 20% HP-β-CD vehicle.
3 fed female C57 mice were each dosed 5 mL/kg by gavage (PO) at a dose of 25 mg/kg. Blood samples were collected 4 hours after dosing, and then animals were killed by CO2. Colons near the end of the rectum, approximately 4-6 cm in length, were dissected, rinsed with cold saline, blotted dry with absorbent paper, and weighed.
Concentrations of the test compounds in the plasma and intestinal homogenate sample were quantified by LC-MS/MS using an API-4500 mass spectrometer with a plasma limit of quantitation (LOQ) of 1 ng/mL.

[3] = target: human recombinant TYK2 protein (Homo sapiens, UniProt P29597); test: TYK2 activity inhibition assay (HTRF kinase detection); format: biochemical; settings: 11.25 μM ATP substrate solution
Procedure: The effect of the compounds of the present invention on the activity of TYK2 was assessed by using an in vitro kinase detection assay.
The enzymatic activity of TYK2 was assessed by detecting the substrate phosphorylation level in a kinase reaction with a homogeneous time-resolved fluorescence (HTRF) kinase detection kit (Cisbio, 62TK0PEC). A reaction buffer contained an enzyme buffer (1×), 5 mM MgCl2, 1 mM DTT and 0.01% Brij35 from the kit; a human recombinant TYK2 protein (Carna Biosciences, 08-147) was diluted to a kinase reaction solution of 0.25 ng/μL with the reaction buffer; a substrate reaction solution contained 11.25 μM ATP and a biotin-labeled tyrosine kinase substrate diluted to 0.5 μM with the reaction buffer; a detection buffer contained 0.1 ng/μL Eu^3+ labeled cage antibody (Cisbio, 61T66KLB) and 25 nM streptavidin-labeled XL665 (Cisbio, 610SAXLB) in the reaction buffer; the compound was dissolved to 10 μM in DMSO, followed by a serial 4-fold dilution with DMSO to a minimum concentration of 0.061 nM. Each concentration was further diluted 40-fold with the reaction buffer. To a 384-well assay plate (Corning, 3674) were added 4 μL of the compound solutions having a series of concentrations and 2 μL of kinase reaction solutions. After being mixed evenly, the mixtures were incubated at room temperature for 15 minutes, and then 4 μL of the substrate reaction solutions were added. The reaction mixtures were incubated at room temperature for 40 minutes. Then the reaction mixtures were added with 10 μL of detection solutions, mixed evenly, and allowed to stand at room temperature for 30 minutes. An Envision plate reader (Perkin Elmer) was then used to measure the progress of the reaction at wavelengths of 620 nm and 665 nm. The signal value (absorbance at 665 nm/absorbance at 620 nm) was positively correlated with the degree of substrate phosphorylation, therefore the kinase activity of TYK2 was detected. In this assay, the group without TYK2 kinase protein was the 100% inhibition group, and the group with TYK2 kinase protein but without the test compound was the 0% inhibition group. The compound inhibition curve was plotted using XLfit software and the IC50 of its inhibition was calculated.

[4] = target: human recombinant JAK2 protein (Homo sapiens, UniProt O60674); test: JAK2 activity inhibition assay (HTRF kinase detection); format: biochemical; settings: 2.5 μM ATP substrate solution
Procedure: The effect of the compounds of the present invention on the activity of JAK2 was assessed by using an in vitro kinase detection assay.
The enzymatic activity of JAK2 was assessed by detecting the substrate phosphorylation level in a kinase reaction with a homogeneous time-resolved fluorescence (HTRF) kinase detection kit (Cisbio, 62TK0PEC). A reaction buffer contained an enzyme buffer (1×), 5 mM MgCl2, 1 mM DTT and 0.01% Brij35 from the kit; a human recombinant JAK2 protein (Carna Biosciences, 08-045) was diluted to a kinase reaction solution of 0.15 ng/μL with the reaction buffer; a substrate reaction solution contained 2.5 μM ATP and a biotin-labeled tyrosine kinase substrate diluted to 0.25 μM with the reaction buffer; a detection buffer contained 0.1 ng/μL Eu^3+ labeled cage antibody (Cisbio, 61T66KLB) and 12.5 nM streptavidin-labeled XL665 (Cisbio, 610SAXLB) in the reaction buffer; the compound was dissolved to 10 μM in DMSO, followed by a serial 4-fold dilution with DMSO to a minimum concentration of 0.061 nM. Each concentration was further diluted 40-fold with the reaction buffer. To a 384-well assay plate (Corning, 3674) were added 4 μL of the compound solutions having a series of concentrations and 2 μL of JAK2 kinase reaction solutions. After being mixed evenly, the mixtures were incubated at room temperature for 15 minutes, and then 4 μL of the substrate reaction solutions were added. The reaction mixtures were incubated at room temperature for 30 minutes. Then the reaction mixtures were added with 10 μL of detection solutions, mixed evenly, and allowed to stand at room temperature for 30 minutes. An Envision plate reader (Perkin Elmer) was then used to measure the progress of the reaction at wavelengths of 620 nm and 665 nm. The signal value (absorbance at 665 nm/absorbance at 620 nm) was positively correlated with the degree of substrate phosphorylation, therefore the kinase activity of JAK2 was detected. In this assay, the group without JAK2 kinase protein was the 100% inhibition group, and the group with JAK2 kinase protein but without the test compound was the 0% inhibition group. The compound inhibition curve was plotted using XLfit software and the IC50 of its inhibition was calculated.

[5] = colon homogenate, read-out: Colon exposure
[6] = plasma, LOQ 1 ng/mL, read-out: Plasma exposure

Row | Structure (SMILES) | IC50 [1] [nM] | concentration at 4 h [2, 5] [ng/g] | concentration at 4 h [2, 6] [ng/mL] | IC50 [3] [nM] | IC50 [4] [nM] | Plasma exposure ([2]; plasma, LOQ 1 ng/mL)
1 | CN1CCN(C(=O)c2ccc(Nc3nc(-c4c(F)cccc4F)n4cc[nH]c(=O)c34)cc2)CC1 [Compound 29, 3-(2,6-difluorophenyl)-1-((4-(4-methylpiperazine-1-carbonyl)phenyl)amino)imidazo[1,5-a]pyrazin-8(7H)-one] | 75 | 3920 | 75 | 0.1 | 0.7 | 
2 | O=C(c1ccc(Nc2nc(-c3c(F)cccc3F)n3cc[nH]c(=O)c23)cc1)N1CCNCC1 [Compound 30, 3-(2,6-difluorophenyl)-1-((4-(piperazine-1-carbonyl)phenyl)amino)imidazo[1,5-a]pyrazin-8(7H)-one] | 318 | 12200 |  | 0.1 | 0.8 | BLOQ
3 | CC(C)(C(N)=O)c1ccc(Nc2nc(-c3c(F)cccc3F)n3cc[nH]c(=O)c23)cc1 [Compound 34, 2-(4-((3-(2,6-difluorophenyl)-8-oxo-7,8-dihydroimidazo[1,5-a]pyrazin-1-yl)amino)phenyl)-2-methylpropanamide] | 65 | 2700 | 50 | 0.1 | 0.6 | 
4 | CC(C)(C(=O)N1CCNCC1)c1ccc(Nc2nc(-c3c(F)cccc3F)n3cc[nH]c(=O)c23)cc1 [Compound 36, 3-(2,6-difluorophenyl)-1-((4-(2-methyl-1-oxo-1-(piperazin-1-yl)propan-2-yl)phenyl)amino)imidazo[1,5-a]pyrazin-8(7H)-one] | 3480 | 5090 | 18 | 0.4 | 0.6 | 
5 | CC(C)(C(=O)O)c1ccc(Nc2nc(-c3c(F)cccc3F)n3cc[nH]c(=O)c23)cc1 [Compound 40, 2-(4-((3-(2,6-difluorophenyl)-8-oxo-7,8-dihydroimidazo[1,5-a]pyrazin-1-yl)amino)phenyl)-2-methylpropanoic acid] | 406 |  |  | 0.4 | 2.8 | 

Molecules with a lower IC50 [1], results first:

Row | IC50 [1] [nM] | concentration at 4 h [2, 5] [ng/g] | concentration at 4 h [2, 6] [ng/mL] | IC50 [3] [nM] | IC50 [4] [nM] | Plasma exposure ([2]; plasma, LOQ 1 ng/mL) | Structure (SMILES)
6 | 57 | 5210 | 249 | 0.2 | 0.3 |  | O=C(c1ccc(Nc2nc(-c3c(F)cccc3F)n3cc[nH]c(=O)c23)cc1)N1CCOCC1 [Compound 1, 3-(2,6-difluorophenyl)-1-((4-(morpholine-4-carbonyl)phenyl)amino)imidazo[1,5-a]pyrazin-8(7H)-one]
7 | 38 | 2850 | 15 | 0.03 | 0.6 |  | NC(=O)c1ccc(Nc2nc(-c3c(F)cccc3Cl)n3cc[nH]c(=O)c23)cc1 [Compound 28, 4-((3-(2-chloro-6-fluorophenyl)-8-oxo-7,8-dihydroimidazo[1,5-a]pyrazin-1-yl)amino)benzamide]
